The values that follow come from patent US20230233584A1, “EXTENDED RELEASE 5-HT RECEPTOR AGONISTS FOR NEUROLOGICAL CONDITIONS” (Diamond Therapeutics Inc., priority 2020, published 2023).

Structures are written as SMILES.

The test system of one assay is 5-HT2A receptor activity. The experiment in a line: Dose finding: behavioral syndrome, wet dog shakes (WDS) and back muscle contractions (BMC). The format is in vivo. The settings on record: rats. How it is done:
Psilocybin was tested at a dose range of 0.03-10.0 mg/kg administered subcutaneously (S.C.) Behavioral syndrome including wet dog shakes (WDS) and back muscle contractions (BMC) are characteristic of 5-HT2A receptor activity and potentially indicative of psychomotor signs. […] There is a parallel between behaviors such as WDS in rats and hallucination in humans (Behavioral Neurobiology of Psychedelic Drugs, Halberstadt, Adam, Vollenweider, Franz X., Nichols, David E. (Eds.), Springer, 2018, p 161).

The subject of a further assay is Long Evans rats. The experiment in a line: Progressive ratio (PR) test, Study B. Type of assay: in vivo. How it is done: General: Experiments were conducted to test psilocybin doses in the range of 0.01-0.2 mg/kg psilocybin administered S.C. across progressive ratio (PR) and 5-choice serial reaction time task (5CSRTT) to examine the effect of psilocybin on endophenotypes of motivation and attention. In each study, a population of out-bred Long Evans rats was first tested as a group for response to the PR and 5CSRTT. Each group was then divided into subgroups by tertiles according to performance, and then exposed to various dose levels immediately prior to re-testing at various psilocybin dose levels.
The PR test is used to answer how willing the test subject is to work for food (i.e. test of motivation). A single 45 mg food pellet (i.e. reinforcer) is made available to the test animal based on lever press response. To obtain each successive pellet, the animal must make increasingly more lever presses. Typically, a progression of 2, 4, 6, 9, 12, 15, 20, 25, 32, 40, 50, 62, 77, 95, 118, etc. is used, derived from the equation:
ratio=[5×e^(0.2×reinforcer #)−5]
At some point, the animal gives up as the motor demands to obtain a single pellet are not deemed worthwhile (i.e. animal reaches “break point” defined as animal's failure to earn a food pellet in 20 minutes).
Study B: Based on Study 1 outcome, a follow-up PR study was conducted utilizing a larger cohort size (72 rats total), and incorporating a lower dose of psilocybin (0.025 mg/kg SC) (FIG. 2C and FIG. 2D). […] Separation of rats based on the lowest average break point recorded over the 7 days prior to testing identified a “low responder” subgroup of N=24 rats. […] There was no treatment effect on session duration (F3,69=2.4; P=0.07, NS), although there was trend for this to be increased at the 0.1 mg/kg dose (Veh: 15.1+2.0 min; Psilo 0.1 mg/kg: 18.7+2.5 min).

Where [1] appears, read: 0.025-0.1 mg/kg SC, all 72 rats.

Consider `CN(C)CCc1c[nH]c2cccc(OP(=O)(O)O)c12` [psilocybin, 4-phosphoryloxy-N,N-dimethyltryptamine], for which the “signs of behavioral syndrome (WDS/BMC)” value in the assay on 5-HT2A receptor activity (0.3 mg/kg I.P and higher) is given as “significant signs of behavior syndrome”. Besides, in the assay on 5-HT2A receptor activity (0.03-0.1 mg/kg S.C.), the “signs of behavioral syndrome (WDS/BMC)” value is “no signs of behavioral syndrome”. For the same compound, in the assay on Long Evans rats (0.1 mg/kg, low responder cohort), the session duration is 18.7+2.5 min. Further, in the assay on Long Evans rats (setting [1]), the break point result is “no treatment group was significantly different to vehicle” and the “number of lever presses, session duration” value is listed as “no main effect of treatment”. Besides, the “lever press and break point” value with Long Evans rats (0.05-0.1 mg/kg pretreatment, low responder cohort N=24, relative to vehicle) is “increases in both measures”.
